Assays:
[1] = target: PI3K delta (Homo sapiens (Human), UniProt O00329); test: Enzymatic PI3K delta isoform inhibition (lipid kinase activity, Kinase-Glo luminescence); format: biochemical; conditions: Enzymatic assay
Summary of the method: (§1)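 IC50s derive from 4-parameter logistic fits of % inhibition across 8 concentrations (usually 10 to 0.003 μM). Lipid kinase reaction: PI3K (10 nM) plus phosphatidylinositol (5 μg/mL) started with 2 μM ATP, stopped near 50% ATP depletion; leftover ATP quantified by Kinase-Glo luminescence.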

[2] = target: PI3K alpha (Homo sapiens (Human), UniProt P42336); test: Enzymatic PI3K alpha isoform inhibition (lipid kinase activity, Kinase-Glo luminescence); format: biochemical; conditions: Enzymatic assay
Summary of the method: as §1

Chain of PI3K delta (O00329 other isoform, or with tags, fused parts or gaps linker GGGGGG): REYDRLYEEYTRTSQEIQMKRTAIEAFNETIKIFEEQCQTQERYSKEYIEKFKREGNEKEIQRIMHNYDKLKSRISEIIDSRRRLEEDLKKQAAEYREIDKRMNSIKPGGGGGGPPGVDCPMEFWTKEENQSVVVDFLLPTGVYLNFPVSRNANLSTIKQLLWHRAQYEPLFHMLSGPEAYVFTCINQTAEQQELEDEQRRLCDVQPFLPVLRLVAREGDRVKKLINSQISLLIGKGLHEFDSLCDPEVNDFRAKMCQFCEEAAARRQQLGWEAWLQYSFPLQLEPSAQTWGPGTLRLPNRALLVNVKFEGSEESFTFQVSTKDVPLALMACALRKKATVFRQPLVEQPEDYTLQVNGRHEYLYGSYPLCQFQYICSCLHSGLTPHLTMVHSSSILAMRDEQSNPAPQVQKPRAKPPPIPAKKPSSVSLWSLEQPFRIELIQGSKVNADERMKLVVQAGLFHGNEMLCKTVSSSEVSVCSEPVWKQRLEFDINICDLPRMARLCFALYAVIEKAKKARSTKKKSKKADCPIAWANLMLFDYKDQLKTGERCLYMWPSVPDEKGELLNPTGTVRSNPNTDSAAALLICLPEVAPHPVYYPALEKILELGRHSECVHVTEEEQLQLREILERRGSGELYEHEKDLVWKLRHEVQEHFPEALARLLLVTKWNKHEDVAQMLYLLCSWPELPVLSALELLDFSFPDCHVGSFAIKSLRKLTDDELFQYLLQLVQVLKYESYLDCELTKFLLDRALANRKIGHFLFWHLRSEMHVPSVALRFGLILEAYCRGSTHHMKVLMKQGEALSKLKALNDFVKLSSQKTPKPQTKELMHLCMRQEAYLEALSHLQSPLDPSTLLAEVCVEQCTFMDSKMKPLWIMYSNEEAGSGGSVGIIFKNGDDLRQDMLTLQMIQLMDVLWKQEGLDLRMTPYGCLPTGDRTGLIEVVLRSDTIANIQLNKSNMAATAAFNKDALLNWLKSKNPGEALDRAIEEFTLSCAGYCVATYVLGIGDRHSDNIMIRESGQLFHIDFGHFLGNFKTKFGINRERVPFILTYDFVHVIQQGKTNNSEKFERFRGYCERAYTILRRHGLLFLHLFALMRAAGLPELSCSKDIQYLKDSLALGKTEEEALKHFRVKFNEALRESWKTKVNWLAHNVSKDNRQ
Chain of PI3K alpha (P42336 other isoform, or with tags, fused parts or gaps): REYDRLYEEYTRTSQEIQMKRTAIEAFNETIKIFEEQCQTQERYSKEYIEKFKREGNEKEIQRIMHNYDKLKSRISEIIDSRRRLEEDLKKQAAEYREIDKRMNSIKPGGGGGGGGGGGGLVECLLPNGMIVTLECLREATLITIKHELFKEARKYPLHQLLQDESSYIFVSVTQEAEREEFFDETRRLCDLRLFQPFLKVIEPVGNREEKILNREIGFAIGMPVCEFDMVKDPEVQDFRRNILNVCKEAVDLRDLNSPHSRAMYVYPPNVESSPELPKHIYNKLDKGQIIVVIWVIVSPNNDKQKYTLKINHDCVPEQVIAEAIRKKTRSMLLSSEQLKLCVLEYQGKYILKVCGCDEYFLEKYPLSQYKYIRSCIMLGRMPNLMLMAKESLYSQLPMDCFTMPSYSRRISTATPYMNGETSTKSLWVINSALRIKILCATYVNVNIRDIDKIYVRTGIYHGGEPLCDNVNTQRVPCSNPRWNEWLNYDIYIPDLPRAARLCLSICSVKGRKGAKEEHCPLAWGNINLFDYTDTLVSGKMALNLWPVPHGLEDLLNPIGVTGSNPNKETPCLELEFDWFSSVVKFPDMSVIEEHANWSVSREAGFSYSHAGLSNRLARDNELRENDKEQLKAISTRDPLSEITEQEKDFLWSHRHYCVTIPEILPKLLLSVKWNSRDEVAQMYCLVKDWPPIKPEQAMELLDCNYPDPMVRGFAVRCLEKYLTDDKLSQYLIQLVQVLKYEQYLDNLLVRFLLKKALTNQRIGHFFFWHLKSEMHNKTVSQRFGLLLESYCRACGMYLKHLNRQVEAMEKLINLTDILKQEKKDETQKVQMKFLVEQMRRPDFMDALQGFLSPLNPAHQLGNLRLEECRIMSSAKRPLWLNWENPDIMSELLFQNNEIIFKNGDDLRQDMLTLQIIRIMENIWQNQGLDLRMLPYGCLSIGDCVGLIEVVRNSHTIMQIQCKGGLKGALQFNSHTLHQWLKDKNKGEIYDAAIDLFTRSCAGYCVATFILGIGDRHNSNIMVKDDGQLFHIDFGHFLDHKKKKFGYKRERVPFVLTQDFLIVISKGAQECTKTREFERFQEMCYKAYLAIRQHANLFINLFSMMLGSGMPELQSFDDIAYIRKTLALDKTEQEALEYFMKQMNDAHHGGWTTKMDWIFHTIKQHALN

Structure (SMILES)	IC50 [1]	IC50 [2]
COCC(=O)N1CC[C@H](Oc2cc3c(cn2)OCCN3c2cnc(OC)c(C(F)F)c2)C1 [Example F9, 1-{(S)-3-[1-(5-Difluoromethyl-6-methoxy-pyridin-3-yl)-2,3-dihydro-1H-pyrido[3,4-b][1,4]oxazin-7-yloxy]-pyrrolidin-1-yl}-2-methoxy-ethanone]	< 3 nM	28 nM
COc1ncc(N2CCOc3ccc(O[C@H]4CCN(C(=O)CC(C)C)C4)cc32)cc1C#N [Example D10, 2-Methoxy-5-{6-[(S)-1-(3-methyl-butyryl)-pyrrolidin-3-yloxy]-2,3-dihydro-benzo[1,4]oxazin-4-yl}-nicotinonitrile]	62 nM	385 nM
CCC(=O)N1CC[C@H](Oc2ccc3c(c2)N(c2ccc(OC)c(S(=O)(=O)NOC)c2)CCO3)C1 [Example A31, 2,N-Dimethoxy-5-[6-((S)-1-propionyl-pyrrolidin-3-yloxy)-2,3-dihydro-benzo[1,4]oxazin-4-yl]-benzenesulfonamide]	88 nM	6020 nM
COc1ccc(N2CCOc3ccc(O[C@H]4CCN(C(=O)C5CCOCC5)C4)cc32)cn1 [Example D30, {(S)-3-[4-(6-Methoxy-pyridin-3-yl)-3,4-dihydro-2H-benzo[1,4]oxazin-6-yloxy]-pyrrolidin-1-yl}-(tetrahydro-pyran-4-yl)-methanone]	127 nM	5150 nM
COc1ncc(N2CCOc3ccc(O[C@H]4CCN(C(=O)C5CCOC5)C4)cc32)cc1C#N (single isomer, unassigned) [Example D29]	3 nM	534 nM
CCC(=O)N1CC[C@H](Oc2ccc3c(c2)N(c2cnc(OC)c(C)c2)CCO3)C1 [Example A13, 1-{(S)-3-[4-(6-Methoxy-5-methyl-pyridin-3-yl)-3,4-dihydro-2H-benzo[1,4]oxazin-6-yloxy]-pyrrolidin-1-yl}-propan-1-one]	5 nM	292 nM
COc1cc(N2CCOc3ccc(O[C@H]4CCN(C(=O)c5cn(C)cn5)C4)cc32)cnc1OC [Example B48, {(S)-3-[4-(5,6-Dimethoxy-pyridin-3-yl)-3,4-dihydro-2H-benzo[1,4]oxazin-6-yloxy]-pyrrolidin-1-yl}-(1-methyl-1H-imidazol-4-yl)-methanone]	7 nM	109 nM
CCC(=O)N1CC[C@H](Oc2ccc3c(c2)N(c2cnc(OC)c(Cl)c2)CCO3)C1 [Example A12, 1-{(S)-3-[4-(5-Chloro-6-methoxy-pyridin-3-yl)-3,4-dihydro-2H-benzo[1,4]oxazin-6-yloxy]-pyrrolidin-1-yl}-propan-1-one]	3 nM	182 nM
COCC(=O)N1CC[C@H](Oc2cc3c(cn2)OCCN3c2cnc(S(C)(=O)=O)c(C(F)F)c2)C1 [Example F11, 1-{(S)-3-[1-(5-Difluoromethyl-6-methanesulfonyl-pyridin-3-yl)-2,3-dihydro-1H-pyrido[3,4-b][1,4]oxazin-7-yloxy]-pyrrolidin-1-yl}-2-methoxy-ethanone]	76 nM	78 nM
COc1ncc(N2CCOc3ccc(O[C@H]4CCN(C(=O)C5CCCOC5)C4)cc32)cc1C#N (stereo partly drawn) [Example C26, 2-Methoxy-5-{6-[(S)-1-(tetrahydro-pyran-3-carbonyl)-pyrrolidin-3-yloxy]-2,3-dihydro-benzo[1,4]oxazin-4-yl}-nicotinonitrile]	3220 nM	6950 nM
Cc1cc(N2CCOc3ccc(O[C@H]4CCN(C(=O)C5CCOC5)C4)cc32)cnc1S(C)(=O)=O (stereo partly drawn) [Example B52, {(S)-3-[4-(6-Methanesulfonyl-5-methyl-pyridin-3-yl)-3,4-dihydro-2H-benzo[1,4]oxazin-6-yloxy]-pyrrolidin-1-yl}-(tetrahydro-furan-3-yl)-methanone]	< 3 nM	556 nM
Cc1cc(N2CCOc3ccc(O[C@H]4CCN(C(=O)c5cncnc5)C4)cc32)cnc1S(C)(=O)=O [Example B23, {(S)-3-[4-(6-Methanesulfonyl-5-methyl-pyridin-3-yl)-3,4-dihydro-2H-benzo[1,4]oxazin-6-yloxy]-pyrrolidin-1-yl}-pyrimidin-5-yl-methanone]	28 nM	1000 nM
COc1ncc(N2CCOc3ccc(O[C@H]4CCN(C(=O)C5CCS(=O)(=O)CC5)C4)cc32)cc1C(F)(F)F [Example B14, (1,1-Dioxo-hexahydro-1lambda*6*-thiopyran-4-yl)-{(S)-3-[4-(6-methoxy-5-trifluoromethyl-pyridin-3-yl)-3,4-dihydro-2H-benzo[1,4]oxazin-6-yloxy]-pyrrolidin-1-yl}-methanone]	6 nM	244 nM
COc1cc(N2CCOc3ccc(O[C@H]4CCN(C(=O)C5CCOCC5)C4)cc32)cnc1S(C)(=O)=O [Example B9, {(S)-3-[4-(6-Methanesulfonyl-5-methoxy-pyridin-3-yl)-3,4-dihydro-2H-benzo[1,4]oxazin-6-yloxy]-pyrrolidin-1-yl}-(tetrahydro-pyran-4-yl)-methanone]	78 nM	1770 nM
COc1cc(N2CCOc3ccc(O[C@H]4CCN(C(=O)C5COCCO5)C4)cc32)cnc1OC (stereo partly drawn) [Example B39, {(S)-3-[4-(5,6-Dimethoxy-pyridin-3-yl)-3,4-dihydro-2H-benzo[1,4]oxazin-6-yloxy]-pyrrolidin-1-yl}-[1,4]dioxan-2-yl-methanone]	11 nM	176 nM
COc1ncc(N2CCOc3ccc(O[C@H]4CCN(C(=O)C5CCN(C(C)=O)CC5)C4)cc32)cc1C#N [Example D5, 5-{6-[(S)-1-(1-Acetyl-piperidine-4-carbonyl)-pyrrolidin-3-yloxy]-2,3-dihydro-benzo[1,4]oxazin-4-yl}-2-methoxy-nicotinonitrile]	42 nM	802 nM
COc1cc(N2CCOc3ccc(O[C@H]4CCN(C(=O)C5COCCO5)C4)cc32)cnc1OC (single isomer, unassigned) [Example H6]	53 nM	846 nM
Cc1cc(N2CCOc3ccc(O[C@H]4CCN(C(=O)C5CCOC5)C4)cc32)cnc1S(C)(=O)=O (stereo partly drawn) [Example B53, {(S)-3-[4-(6-Methanesulfonyl-5-methyl-pyridin-3-yl)-3,4-dihydro-2H-benzo[1,4]oxazin-6-yloxy]-pyrrolidin-1-yl}-(tetrahydro-furan-3-yl)-methanone]	4.5 nM	343 nM
COc1ncc(N2CCOc3ccc(O[C@H]4CCN(C(=O)c5cnccn5)C4)cc32)cc1C#N [Example C15, 2-Methoxy-5-{6-[(S)-1-(pyrazine-2-carbonyl)-pyrrolidin-3-yloxy]-2,3-dihydro-benzo[1,4]oxazin-4-yl}-nicotinonitrile]	17 nM	383 nM
Cc1cc(N2CCOc3ccc(O[C@H]4CCN(C(=O)C5CC5)C4)cc32)cnc1S(C)(=O)=O [Example B80, Cyclopropyl-{(S)-3-[4-(6-methanesulfonyl-5-methyl-pyridin-3-yl)-3,4-dihydro-2H-benzo[1,4]oxazin-6-yloxy]-pyrrolidin-1-yl}-methanone]	4 nM	295 nM
CCC(=O)N1CC[C@H](Oc2ccc3c(c2)N(c2cnc(OC)c(F)c2)CCO3)C1 [Example A11, 1-{(S)-3-[4-(5-Fluoro-6-methoxy-pyridin-3-yl)-3,4-dihydro-2H-benzo[1,4]oxazin-6-yloxy]-pyrrolidin-1-yl}-propan-1-one]	69 nM	2280 nM

From patent US9539260B2, “Dihydro-benzo-oxazine and dihydro-pyrido-oxazine derivatives” (Novartis AG, priority 2012, dated 2017)
